# Results taken from patent US11214803B2, “Modulators of YAP1 expression” (Ionis Pharmaceuticals, Inc., priority 2019, dated 2022).
# Strand notation (5' to 3'): a small letter for the sugar, then the base; units joined by * are phosphorothioate-linked, units joined directly phosphodiester-linked; [ ] holds rarer units or linkages, { } end groups; capitals alone tell only the bases. k = constrained ethyl (cEt); [5mC] = 5-methylcytosine; d = 2'-deoxy (DNA)
# System: Yap1 mRNA
# Assay: Antisense inhibition of human Yap1 in A-431 cells by cEt gapmers, single dose (Example 2, RTS4814)
# Format: cell-based
# How it was run: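 Each 16-nucleoside gapmer (ten-deoxy gap, three-cEt wings) is tested once at 2,000 nM in A-431 cells by free uptake. Yap1 mRNA after about 48 hours is measured by quantitative RT-PCR and expressed relative to untreated control.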
# [1] = Yap1 mRNA as percent of untreated control, A-431 cells, 3-10-3 cEt gapmers targeting SEQ ID NO.: 1, and 2, Table 31
# [2] = Yap1 mRNA as percent of untreated control, A-431 cells, 3-10-3 cEt gapmers targeting SEQ ID NO.: 1, and 2, Table 30
# [3] = Table 18, A-431 cells, 5,000 cells per well, free uptake, 2,000 nM modified oligonucleotide, approx. 48 hours, RTS4814, normalized to RIBOGREEN, Yap1 mRNA as percent of untreated control
# [4] = Table 6, A-431 cells, 5,000 cells per well, free uptake, 2,000 nM modified oligonucleotide, approx. 48 hours, RTS4814, normalized to RIBOGREEN, Yap1 mRNA relative to untreated control cells
# [5] = Table 19, A-431 cells, 5,000 cells per well, free uptake, 2,000 nM modified oligonucleotide, approx. 48 hours, RTS4814, normalized to RIBOGREEN, Yap1 mRNA as percent of untreated control
# [6] = Table 20, Yap1 mRNA, percent of untreated control, 3-10-3 cEt gapmers targeting SEQ ID NO.: 1 and 2
# [7] = Table 23, Yap1 mRNA as percent of untreated control, 3-10-3 cEt gapmers, single dose
# [8] = Table 22, Yap1 mRNA as percent of untreated control, 3-10-3 cEt gapmers, single dose
# [9] = A-431 cells, 5,000 cells per well, free uptake, 2,000 nM modified oligonucleotide, approx. 48 hours, RTS4814, normalized to RIBOGREEN, Table 4, asterisk (*) = targets amplicon region of primer probe set
# [10] = Table 5, A-431 cells, 5,000 cells per well, free uptake, 2,000 nM modified oligonucleotide, approx. 48 hours, RTS4814, normalized to RIBOGREEN, Yap1 mRNA relative to untreated control cells
substance,measurement,setting,value
1076266 (kA*kT*kT*dA*dT*dT*dA*d[5mC]*d[5mC]*d[5mC]*dA*dA*dT*kA*kA*k[5mC]; antisense) [Compound 1076266],YAP1 (% UTC),"Table 24, Yap1 mRNA as percent of untreated control, 3-10-3 cEt gapmers targeting SEQ ID NO.: 1, and 2",72 % UTC
1075475 (kT*kA*kG*d[5mC]*dA*dA*d[5mC]*dA*d[5mC]*dA*dT*dG*dA*kA*kG*kA; antisense) [compound 1075475],YAP1 (% UTC),"Table 33, Yap1 mRNA, percent of untreated control, 3-10-3 cEt gapmers targeting SEQ ID NO.: 1, and 2",64 % UTC
1074833 (kT*kG*k[5mC]*dG*dA*dG*dG*dA*dT*dA*dA*dA*dA*kT*k[5mC]*k[5mC]; antisense) [compound 1074833],YAP1 (% UTC),[1],17 % UTC
1076496 (kG*kT*kT*dA*dA*dA*dG*dA*d[5mC]*d[5mC]*dA*dA*d[5mC]*kA*k[5mC]*kA; antisense) [compound 1076496],YAP1 (% UTC),[2],81 % UTC
1075460 (antisense kA*kA*kT*dA*dA*d[5mC]*d[5mC]*dA*dA*dG*dG*dA*dT*kA*kG*kT) [Compound 1075460],YAP1 (% UTC),[3],30 % UTC
716408 (k[5mC]*kA*k[5mC]*dT*dG*dT*dA*dG*d[5mC]*dT*dG*d[5mC]*dT*k[5mC]*kA*kT; antisense) [Compound 716408],YAP1 (% UTC),[4],54 % UTC
1075876 (kG*kT*kA*dT*dT*dT*dA*dT*dG*dA*dT*dG*dA*kT*kT*k[5mC]; antisense) [Compound 1075876],YAP1 (% UTC),[3],6 % UTC
1074769 (kT*k[5mC]*kT*dT*dA*dT*d[5mC]*d[5mC]*d[5mC]*dA*dA*dT*dG*k[5mC]*kT*kA; antisense) [compound 1074769],YAP1 (% UTC),[1],12 % UTC
1076197 (kT*kA*kT*dT*dA*dT*d[5mC]*dA*dA*dG*dG*dG*dA*kA*kT*kT; antisense) [Compound 1076197],YAP1 (% UTC),[5],94 % UTC
1074181 (antisense k[5mC]*k[5mC]*k[5mC]*dG*dG*dG*dA*dT*d[5mC]*d[5mC]*dA*dT*dG*kG*k[5mC]*kT) [Compound 1074181],YAP1 (% UTC),[5],107 % UTC
1075078 (antisense k[5mC]*kA*kA*d[5mC]*dT*dA*dT*dA*d[5mC]*dG*dG*dT*d[5mC]*k[5mC]*kA*kT) [Compound 1075078],YAP1 (% UTC),[6],3 % UTC
716576 (kT*kG*kT*d[5mC]*dA*dG*dT*dT*dA*dT*d[5mC]*d[5mC]*dT*kA*kT*k[5mC]; antisense) [Compound 716576],YAP1 (% UTC),[4],52 % UTC
1076041 (kG*kT*kT*dA*dA*dA*dG*dA*dG*dT*dG*dG*dA*kA*kA*kT; antisense) [Compound 1076041],YAP1 (% UTC),[7],47 % UTC
1076038 (kA*kG*kG*d[5mC]*dA*dA*dG*dA*dA*dT*dT*dG*dG*kG*kT*kA; antisense) [Compound 1076038],YAP1 (% UTC),[6],11 % UTC
1074501 (kA*k[5mC]*kT*dA*d[5mC]*dA*dA*dT*dA*dA*d[5mC]*d[5mC]*dA*kT*k[5mC]*k[5mC]; antisense) [Compound 1074501],YAP1 (% UTC),[5],9 % UTC
1075076 (antisense k[5mC]*kA*kT*dA*dA*d[5mC]*dA*dT*d[5mC]*dA*dT*dG*dG*kA*kA*kG) [Compound 1075076],YAP1 (% UTC),[3],25 % UTC
1074281 (antisense kG*kA*kG*dG*dG*dT*d[5mC]*dA*dA*dG*d[5mC]*d[5mC]*dT*kT*kG*kG) [Compound 1074281],YAP1 (% UTC),[7],91 % UTC
1074472 (kA*kA*k[5mC]*d[5mC]*d[5mC]*d[5mC]*d[5mC]*d[5mC]*d[5mC]*dA*d[5mC]*d[5mC]*dG*kA*k[5mC]*k[5mC]; antisense) [Compound 1074472],YAP1 (% UTC),[8],107 % UTC
1074600 (antisense k[5mC]*kA*kG*d[5mC]*dT*dA*dA*d[5mC]*dT*d[5mC]*dA*dA*dA*kA*k[5mC]*k[5mC]) [Compound 1074600],YAP1 (% UTC),[8],29 % UTC
716472 (kG*kT*k[5mC]*dA*dT*dG*d[5mC]*dA*d[5mC]*dA*dT*dT*dA*kT*kG*kA; antisense) [Compound 716472],YAP1 (% UTC),[9],78 % UTC
1075912 (kA*kG*kT*dT*dA*dT*dA*d[5mC]*dA*d[5mC]*dA*dA*d[5mC]*k[5mC]*kA*k[5mC]; antisense) [Compound 1075912],YAP1 (% UTC),[8],13 % UTC
1075729 (kT*kA*kT*dT*dT*dA*dA*dA*dA*dA*dT*dA*dG*k[5mC]*kG*k[5mC]; antisense) [compound 1075729],YAP1 (% UTC),[1],88 % UTC
1075689 (k[5mC]*kA*kA*d[5mC]*dT*dA*dT*dA*d[5mC]*dA*dA*dG*dG*k[5mC]*kA*kA; antisense) [Compound 1075689],YAP1 (% UTC),[7],4 % UTC
1075913 (k[5mC]*k[5mC]*k[5mC]*d[5mC]*dT*dA*dT*dA*d[5mC]*dT*dT*dT*dT*kT*kG*kA; antisense) [Compound 1075913],YAP1 (% UTC),[7],46 % UTC
1074887 (antisense kT*kA*kG*d[5mC]*d[5mC]*dT*dG*dA*dA*dG*d[5mC]*dA*dA*kG*kT*kT) [Compound 1074887],YAP1 (% UTC),"Table 21, Yap1 mRNA, percent of untreated control, 3-10-3 cEt gapmers targeting SEQ ID NO.: 1 and 2",57 % UTC
716516 (antisense kA*kA*k[5mC]*dT*dT*dT*d[5mC]*d[5mC]*d[5mC]*dA*d[5mC]*d[5mC]*d[5mC]*kT*k[5mC]*k[5mC]) [Compound 716516],YAP1 (% UTC),[4],84 % UTC
716462 (kT*kT*kA*dA*dA*d[5mC]*dT*dA*d[5mC]*d[5mC]*dA*dG*dT*kG*kA*kA; antisense) [Compound 716462],YAP1 (% UTC),[4],86 % UTC
1075657 (kT*kA*kA*dA*dA*dA*dA*d[5mC]*dG*dG*dT*dT*dT*kT*kT*k[5mC]; antisense) [Compound 1075657],YAP1 (% UTC),[7],84 % UTC
1074985 (antisense kA*kA*kT*d[5mC]*dA*d[5mC]*d[5mC]*dT*dT*dT*dT*dA*dT*kT*kG*k[5mC]) [Compound 1074985],YAP1 (% UTC),[7],49 % UTC
1075632 (antisense kT*k[5mC]*k[5mC]*d[5mC]*dT*dA*dT*dA*dA*d[5mC]*d[5mC]*dA*dA*kA*kT*kG) [compound 1075632],YAP1 (% UTC),[2],95 % UTC
716436 (kA*k[5mC]*kT*dG*dG*dA*d[5mC]*dA*dA*dA*dG*dG*dA*kA*kG*k[5mC]; antisense) [Compound 716436],YAP1 (% UTC),[9],59 % UTC
1075761 (kG*kG*kA*dG*dA*dA*dA*dA*dA*d[5mC]*dT*dA*d[5mC]*kG*kG*kA; antisense) [compound 1075761],YAP1 (% UTC),[1],13 % UTC
1076009 (kT*kA*kG*d[5mC]*dG*dA*dA*dA*dA*dT*dA*dA*d[5mC]*kA*kT*kT; antisense) [Compound 1076009],YAP1 (% UTC),[7],69 % UTC
1074917 (antisense k[5mC]*kA*kA*dG*dT*dT*dA*d[5mC]*dA*dT*d[5mC]*d[5mC]*d[5mC]*kG*kA*kG) [Compound 1074917],YAP1 (% UTC),[5],80 % UTC
716369 (k[5mC]*kG*kG*d[5mC]*dG*dG*d[5mC]*dT*dT*dG*dA*dA*dG*kA*kA*kG; antisense) [Compound 716369],YAP1 (% UTC),[4],94 % UTC
716421 (kT*kA*kT*dT*dA*dG*d[5mC]*d[5mC]*dT*dG*dA*dA*dA*kA*k[5mC]*kT; antisense) [Compound 716421],YAP1 (% UTC),[9],86 % UTC
1075985 (kA*kT*kA*dT*d[5mC]*dG*dA*dA*dA*dA*dG*d[5mC]*dA*kA*kA*k[5mC]; antisense) [compound 1075985],YAP1 (% UTC),[1],82 % UTC
1076434 (k[5mC]*kT*kT*dT*dA*dG*dG*dT*dT*dT*dA*dT*dG*k[5mC]*k[5mC]*kT; antisense) [compound 1076434],YAP1 (% UTC),"Table 32, Yap1 mRNA, percent of untreated control, 3-10-3 cEt gapmers targeting SEQ ID NO.: 1, and 2",25 % UTC
1074244 (antisense k[5mC]*kT*k[5mC]*dT*dG*dA*d[5mC]*d[5mC]*dA*dG*dA*dA*dG*kA*kT*kG) [Compound 1074244],YAP1 (% UTC),[3],95 % UTC
716359 (k[5mC]*k[5mC]*k[5mC]*d[5mC]*dT*dG*dA*d[5mC]*d[5mC]*d[5mC]*dA*dG*dG*k[5mC]*kG*kA; antisense) [Compound 716359],YAP1 (% UTC),[10],101 % UTC
716368 (kG*kT*k[5mC]*dG*dG*dG*d[5mC]*dA*dG*d[5mC]*dT*dT*d[5mC]*k[5mC]*kG*kG; antisense) [Compound 716368],YAP1 (% UTC),[10],86 % UTC
1076241 (k[5mC]*kA*kA*dT*dA*dA*dG*dG*dA*dA*d[5mC]*dA*dG*kT*kT*kT; antisense) [compound 1076241],YAP1 (% UTC),[1],42 % UTC
1074276 (antisense k[5mC]*k[5mC]*kA*dA*dG*dA*dG*dG*dT*dG*dG*dT*d[5mC]*kT*kT*kG) [Compound 1074276],YAP1 (% UTC),[3],87 % UTC
716505 (antisense kG*kA*kT*dT*dT*dA*dA*dT*d[5mC]*dT*dT*dT*d[5mC]*kT*kG*k[5mC]) [Compound 716505],YAP1 (% UTC),[9],35 % UTC
716564 (k[5mC]*kT*kT*dT*dT*dG*dG*dG*d[5mC]*dA*dA*dA*dG*kT*kT*k[5mC]; antisense) [Compound 716564],YAP1 (% UTC),[4],103 % UTC
